Broadly, the melting point is the temperature, or range, at which the solid turns liquid.

Bounds are passed on as bounds.

The results in this text go back to patent publication US6500817B1, “Thiazolyl urea derivatives and their utilization as antiviral agents” (Bayer Aktiengesellschaft, priority 1999, dated 2002).

Turning to `CCOc1ccc(NC(=O)N(Cc2ccccc2)c2nc(C)c(S(=O)(=O)N(C)C)s2)cc1`, the melting point turned out to be 187 °C.
Take `CN(C(=O)Nc1ccc(N2CCOCC2)cc1)c1nc(Cl)c(S(=O)(=O)N(C)C)s1` [3]: the melting point stood at 197 °C.
The value for `COCCN(C(=O)Nc1ccc(-c2ccccc2)cc1)c1nc(C)c(S(N)(=O)=O)s1` [195] was 193 °C; that for `CNS(=O)(=O)c1sc(N(CCCN2CCCC2=O)C(=O)Nc2ccc(-c3ccccc3)cc2)nc1C` was 148 °C.
`CNS(=O)(=O)c1sc(N(CCCN(C)c2ccccc2)C(=O)Nc2ccc(-c3ccccc3)cc2)nc1C`: the melting point is 148 °C.
The same measure for `CCOc1ccc(NC(=O)N(Cc2ccccc2)c2nc(C)c(S(=O)(=O)NC3CC3)s2)cc1`: 178 °C; for `CCOc1ccc(NC(=O)N(CCCNC(=O)OC(C)(C)C)c2nc(C)c(S(=O)(=O)NCC(F)(F)F)s2)cc1` [136]: 150 °C; for `CN(C)C(=O)Nc1ccc(NC(=O)N(C)c2nc(Cl)c(S(=O)(=O)N(C)C)s2)cc1`: 240 °C.
Take `COCCN(C)S(=O)(=O)c1sc(N(C)C(=O)Nc2ccc(N3CCOCC3)cc2)nc1C`: the melting point was found to be 156 °C.
For the molecule `Cc1nc(N(C)C(=O)Nc2ccc(N3CCCC3)cc2)sc1S(N)(=O)=O`, the melting point was determined as 209 °C.
`CCOc1ccc(NC(=O)N(CCCCNC(=O)OC(C)(C)C)c2nc(C)c(S(=O)(=O)N(C)C)s2)cc1` yielded a melting point of 152 °C.
Regarding `CCOc1ccc(N(C)C(=O)Nc2nc(C)c(S(=O)(=O)N(C)C)s2)cc1`, the melting point came to 118 °C.
The same measure for `Cc1nc(N(C)C(=O)Nc2ccc(-c3ncon3)cc2)sc1S(=O)(=O)N(C)C`: 184 to 186 °C.
`CCOc1ccc(NC(=O)N(C)c2nc(C)c(S(=O)(=O)NCC3CC3)s2)cc1`: the melting point was found to be 164 °C.
The value for `CN(C(=O)Nc1ccc(OC(CF)CF)cc1)c1nc(Cl)c(S(=O)(=O)N(C)C)s1` was 164 °C; that for `Cc1nc(N(C)C(=O)Nc2ccc(N3CC=CC3)cc2)sc1S(=O)(=O)NC1CC1` was 186 to 187 °C; that for `Cc1nc(N(C)C(=O)Nc2ccc(N3CCC3)cc2)sc1S(=O)(=O)N(C)C` was 193 to 195 °C.
In turn, `CCOc1ccc(NC(=O)N(Cc2ccncc2)c2nc(C)c(S(=O)(=O)NC3CC3)s2)cc1` came in with a melting point of 200 °C.
The same measure for `CCCN(C(=O)Nc1ccc(COC)cc1)c1nc(C)c(S(=O)(=O)NCC(F)(F)F)s1`: 143 °C; for `CCOc1ccc(NC(=O)N(C)c2ncc(S(=O)(=O)NCc3ccccc3)s2)cc1`: 171 °C.
`CCOc1ccc(NC(=O)N(CCNC(=O)OC(C)(C)C)c2nc(C)c(S(=O)(=O)N(C)C)s2)cc1` yielded a melting point of 164 °C.
The value for `CCOc1ccc(NC(=O)N(CCCNC(=O)OC(C)(C)C)c2nc(C)c(S(=O)(=O)N(C)C)s2)cc1` was 130 °C; that for `CNS(=O)(=O)c1sc(N(CC2CCCO2)C(=O)Nc2ccc(-c3ccccc3)cc2)nc1C` (stereo not shown) was 178 °C; that for `CCOc1ccc(NC(=O)N(C)c2nc(C)c(S(=O)(=O)NCc3ccccn3)s2)cc1` was 154 °C.
The same measure for `COC(=O)c1ccc(N(C)C(=O)N(C)c2nc(Cl)c(S(=O)(=O)N(C)C)s2)cc1`: 168 °C; for `CCOc1ccc(NC(=O)N(CCCN(C)C)c2nc(C)c(S(=O)(=O)NC)s2)cc1`: 185 °C; for `CCCOc1ccc(NC(=O)N(CCOC)c2nc(CC)c(S(N)(=O)=O)s2)cc1`: 163 °C.
Consider `CCOc1ccc(NC(=O)N(CCN(C)C)c2nc(C)c(S(=O)(=O)NC3CC3)s2)cc1`, for which the melting point amounted to 168 °C.
`CCOc1ccc(NC(=O)N(C)c2nc(C)c(S(=O)(=O)NCC3CCCO3)s2)cc1` (stereo not shown) showed a melting point of 168 °C.
The molecule `Cc1nc(N(C)C(=O)Nc2ccc(N3CCOCC3)cc2)sc1S(=O)(=O)NC1CC1` showed a melting point of 235 °C.
The same measure for `CCc1nc(N(CCCN(CC)CC)C(=O)Nc2ccc(-c3ccccc3)cc2)sc1S(N)(=O)=O`: 177 °C; for `CCOc1ccc(NC(=O)N(CCCN2CCCC2=O)c2nc(C)c(S(=O)(=O)NC)s2)cc1`: 188 °C; for `Cc1nc(N(C)C(=O)Nc2ccc(-c3cccn3C(=O)OC(C)(C)C)cc2)sc1S(=O)(=O)N(C)C`: 84 °C.
The value for `CNS(=O)(=O)c1sc(N(Cc2ccccn2)C(=O)Nc2ccc(N3CCOCC3)cc2)nc1C` was 206 °C.
Turning to `CNS(=O)(=O)c1sc(N(CCOC)C(=O)Nc2ccc(N3CCCC3)cc2)nc1C`, the melting point amounted to 184 °C.
The value for `CCc1nc(N(C)C(=O)Nc2ccc(N3CCOCC3)cc2)sc1S(=O)(=O)N(C)C` was 199 °C.
The value for `CCCN(C(=O)Nc1ccc(N2CCOCC2)cc1)c1nc(C)c(S(=O)(=O)N(C)C)s1` was 161 °C.
The same measure for `CN(C(=O)Nc1ccc(N2CCOCC2)cc1)c1nc(Cl)c(S(=O)(=O)NC2CC2)s1`: 241 °C; for `CCOc1ccc(NC(=O)N(C)c2nc(C)c(S(=O)(=O)N(C)C)s2)cc1`: 168 °C.
Molecule `CCOc1ccc(NC(=O)N(CCOC)c2nc(C)c(S(=O)(=O)N(C)C)s2)cc1` yielded a melting point of 162 °C.
The value for `COC(=O)c1ccc(NC(=O)N(C)C2=NC(Cl)C(S(=O)(=O)N(C)C)S2)cc1` (stereo not shown) was 220 °C.
Molecule `CNS(=O)(=O)c1sc(NC(=O)Nc2ccc(-c3ccccc3)cc2)nc1C` came in with a melting point of 199 °C.
On to `CCCN(C(=O)Nc1ccc(-c2ccccc2)cc1)c1nc(C)c(S(=O)(=O)NCC(F)(F)F)s1`, for which the melting point was determined as 146 °C.
The value for `COCCNS(=O)(=O)c1sc(N(C)C(=O)Nc2ccc(-c3ccccc3)cc2)nc1C` was 157 °C; that for `CCn1c(=O)oc2cc(NC(=O)N(C)c3nc(Cl)c(S(=O)(=O)N(C)C)s3)ccc21` was 232 °C; that for `Cc1nc(N(C)C(=O)Nc2ccc(OCC(O)CO)cc2)sc1S(=O)(=O)N(C)C` (stereo not shown) was 156 °C.
The same measure for `Cc1nc(N(C)C(=O)Nc2ccc(N3CCCCC3)cc2)sc1S(=O)(=O)N(C)C`: 185 °C.
The same measure for `Cc1nc(N(C)C(=O)Nc2ccc(-c3ccccc3)cc2)sc1S(=O)(=O)N(C)C`: 228 °C; for `CCOc1ccc(NC(=O)N(C)c2nc(Cl)c(S(=O)(=O)NCN3CCCCC3)s2)cc1`: 183 °C; for `CCOc1ccc(NC(=O)N(C)c2nc(Cl)c(S(=O)(=O)N(C)C)s2)cc1`: 215 °C.
In the case of `CCOc1ccc(NC(=O)N(C)c2nc(C)c(S(=O)(=O)NC(C)C)s2)cc1`, the melting point stood at 192 °C.
The value for `CCCOc1ccc(NC(=O)N(C)c2nc(C)c(S(=O)(=O)N(C)C)s2)cc1` was 147 °C.
The same measure for `CCCN(C(=O)Nc1ccc(N2CCOCC2)cc1)c1nc(C)c(S(=O)(=O)NC)s1`: 179 °C; for `CCOc1ccc(NC(=O)N(CCCNC(=O)OC(C)(C)C)c2nc(C)c(S(=O)(=O)NCC(F)(F)F)s2)cc1` [135]: 161 °C; for `Cc1nc(N(C)C(=O)Nc2ccc(C3=NOCCO3)cc2)sc1S(=O)(=O)NC1CC1`: over 225 °C.
The same measure for `C=C(Nc1ccc(N2CCOCC2)cc1)Nc1nc(C)c(S(=O)(=O)N(C)C)s1`: 188 °C; for `CNS(=O)(=O)c1sc(N(CCCN(C)C)C(=O)Nc2ccc(-c3ccccc3)cc2)nc1C`: 196 °C; for `Cc1nc(N(C)C(=O)Nc2ccc(N3CCOCC3)cc2)sc1S(=O)(=O)N(C)C1CC1`: 198 °C.
For `CNS(=O)(=O)c1sc(N(CCN(C)C)C(=O)Nc2ccc(N3CCCC3)cc2)nc1C`, the melting point is 188 °C.
Take `CCCN(C(=O)Nc1ccc(OCC)cc1)c1nc(C)c(S(=O)(=O)NC)s1`: the melting point amounted to 154 °C.
Take `CCCN(C(=O)Nc1ccc(OCC)cc1)c1nc(Cl)c(S(=O)(=O)N(C)C)s1`: the melting point was 132 °C.
The value for `Cc1nc(N(CC2CCCO2)C(=O)Nc2ccc(-c3ccccc3)cc2)sc1S(N)(=O)=O` (stereo not shown) was 165 °C.
The same measure for `CCc1nc(N(CCCO)C(=O)Nc2ccc(N3CCCC3)cc2)sc1S(=O)(=O)NC`: 161 °C; for `CCOc1ccc(NC(=O)N(CCCCNC(=O)OC(C)(C)C)c2nc(C)c(S(=O)(=O)NC)s2)cc1`: 148 °C.
Regarding `COCCN(C(=O)Nc1ccc(-c2ccccc2)cc1)c1nc(C)c(S(=O)(=O)NC2CC2)s1`, the melting point amounted to 160 °C.
The same measure for `CCOc1ccc(NC(=O)N(C)c2nc(C)c(S(=O)(=O)NCCn3ccnn3)s2)cc1`: 154 °C; for `CCOC(=O)N1CC2CCN(c3ccc(NC(=O)N(C)c4nc(S(=O)(=O)NC5CC5)c(C)s4)cc3)C2C1` (stereo not shown): 140 °C.
The same measure for `CCOc1ccc(NC(=O)N(C)c2nc(C)c(S(=O)(=O)NC)s2)cc1`: 179 °C; for `CCOc1ccc(NC(=O)N(Cc2ccccn2)c2nc(C)c(S(=O)(=O)NC)s2)cc1`: 194 °C.
The molecule `CCOc1ccc(NC(=O)N(Cc2cccnc2)c2nc(C)c(S(=O)(=O)NC)s2)cc1` had a melting point of 212 °C.
The value for `CCCOc1ccc(NC(=O)N(C)c2nc(C)c(S(=O)(=O)NC)s2)cc1` was 161 °C; that for `Cc1nc(N(Cc2ccncc2)C(=O)Nc2ccc(N3CCOCC3)cc2)sc1S(N)(=O)=O` was 186 °C.
Molecule `CCCCOc1ccc(NC(=O)N(C)c2nc(Cl)c(S(=O)(=O)N(C)C)s2)cc1` came in with a melting point of 140 °C.
The value for `Cc1nc(N(C)C(=O)Nc2ccc(N3CCCC3)cc2)sc1S(=O)(=O)NCC1CC1` was 205 °C.
The same measure for `CNS(=O)(=O)c1sc(N(CCOC)C(=O)Nc2ccc(-c3ccccc3)cc2)nc1C`: 170 °C; for `CCOc1ccc(NC(=O)N(CCn2ccnn2)c2nc(C)c(S(=O)(=O)NC)s2)cc1`: 188 °C; for `CNS(=O)(=O)c1sc(N(C)C(=O)Nc2ccc(C3=NOCCO3)cc2)nc1C`: 192 to 194 °C.
The same measure for `CCOc1ccc(NC(=O)N(CCc2ccccc2)c2nc(C)c(S(=O)(=O)NCc3ccccc3)s2)cc1`: 156 °C; for `CNS(=O)(=O)c1sc(N(CCN(C)C)C(=O)Nc2ccc(N3CCOCC3)cc2)nc1C`: 196 °C.
